Assay results reported in PMC10239507, “Development of allosteric and selective CDK2 inhibitors for contraception with negative cooperativity to cyclin binding” (Nature Communications, 2023).

What was measured:
Assay in all cases: biochemical
[1] = target: T1, 371 kinases (kinase named in each endpoint) (Homo sapiens, UniProt O15530); settings: PDK1/PDPK1
T1 construct: purchased Reaction Biology

[2] = target: T2, 371 kinases (kinase named in each endpoint) (Homo sapiens, UniProt O43781); settings: DYRK3
T2 construct: purchased Reaction Biology

[3] = target: T3, 371 kinases (kinase named in each endpoint) (Homo sapiens, UniProt O75582); settings: MSK1/RPS6KA5
T3 construct: purchased Reaction Biology
T3 sequence (O75582 whole entry): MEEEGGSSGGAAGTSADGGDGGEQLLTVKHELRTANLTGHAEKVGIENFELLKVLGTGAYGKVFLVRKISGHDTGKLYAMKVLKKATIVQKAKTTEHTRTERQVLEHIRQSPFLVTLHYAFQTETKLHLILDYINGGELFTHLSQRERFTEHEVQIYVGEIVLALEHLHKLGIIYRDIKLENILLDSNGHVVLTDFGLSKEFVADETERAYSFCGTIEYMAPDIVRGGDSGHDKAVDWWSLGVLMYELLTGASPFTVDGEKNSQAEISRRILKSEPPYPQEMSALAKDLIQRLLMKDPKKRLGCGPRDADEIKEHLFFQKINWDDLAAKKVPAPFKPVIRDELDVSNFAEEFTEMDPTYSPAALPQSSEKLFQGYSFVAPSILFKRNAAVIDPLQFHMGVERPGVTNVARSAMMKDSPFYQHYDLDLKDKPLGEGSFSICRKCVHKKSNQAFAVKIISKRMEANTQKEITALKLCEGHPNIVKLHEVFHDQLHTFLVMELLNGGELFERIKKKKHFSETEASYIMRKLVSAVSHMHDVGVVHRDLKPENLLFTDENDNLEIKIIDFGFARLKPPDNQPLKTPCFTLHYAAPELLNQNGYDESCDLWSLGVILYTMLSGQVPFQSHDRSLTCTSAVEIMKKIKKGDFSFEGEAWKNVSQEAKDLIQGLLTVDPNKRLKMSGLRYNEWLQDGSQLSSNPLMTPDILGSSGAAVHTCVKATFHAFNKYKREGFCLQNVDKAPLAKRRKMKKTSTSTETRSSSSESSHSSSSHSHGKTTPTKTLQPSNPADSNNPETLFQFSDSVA

[4] = target: T4, 371 kinases (kinase named in each endpoint) (Homo sapiens, UniProt O95747); settings: OSR1/OXSR1
T4 construct: purchased Reaction Biology

[5] = target: T5, 371 kinases (kinase named in each endpoint) (Homo sapiens, UniProt P04629); settings: TRKA
T5 construct: purchased Reaction Biology
T5 sequence (P04629 33-796): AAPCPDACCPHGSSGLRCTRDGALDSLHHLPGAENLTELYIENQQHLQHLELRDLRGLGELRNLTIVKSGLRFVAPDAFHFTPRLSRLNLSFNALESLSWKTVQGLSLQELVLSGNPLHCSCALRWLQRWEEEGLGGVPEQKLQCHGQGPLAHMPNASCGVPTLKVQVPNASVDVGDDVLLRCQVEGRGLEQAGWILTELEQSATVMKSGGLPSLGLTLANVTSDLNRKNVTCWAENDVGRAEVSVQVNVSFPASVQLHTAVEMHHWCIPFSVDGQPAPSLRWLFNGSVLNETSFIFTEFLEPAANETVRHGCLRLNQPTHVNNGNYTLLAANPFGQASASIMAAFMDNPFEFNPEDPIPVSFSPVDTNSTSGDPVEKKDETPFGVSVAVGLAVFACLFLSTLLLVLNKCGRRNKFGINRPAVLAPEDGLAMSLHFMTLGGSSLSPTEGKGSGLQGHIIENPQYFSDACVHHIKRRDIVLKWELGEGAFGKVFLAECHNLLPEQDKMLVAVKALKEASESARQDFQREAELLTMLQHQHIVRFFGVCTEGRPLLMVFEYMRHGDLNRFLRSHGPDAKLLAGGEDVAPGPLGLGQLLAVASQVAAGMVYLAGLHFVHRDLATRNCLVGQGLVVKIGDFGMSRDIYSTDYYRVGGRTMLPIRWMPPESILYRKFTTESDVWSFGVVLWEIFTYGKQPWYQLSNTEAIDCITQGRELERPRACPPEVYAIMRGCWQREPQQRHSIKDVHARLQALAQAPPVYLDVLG

[6] = target: T6, 371 kinases (kinase named in each endpoint) (Homo sapiens, UniProt P07949); settings: RET
T6 construct: purchased Reaction Biology

[7] = target: T7, 371 kinases (kinase named in each endpoint) (Homo sapiens, UniProt P08631); settings: HCK
T7 construct: purchased Reaction Biology
T7 sequence (P08631 whole entry): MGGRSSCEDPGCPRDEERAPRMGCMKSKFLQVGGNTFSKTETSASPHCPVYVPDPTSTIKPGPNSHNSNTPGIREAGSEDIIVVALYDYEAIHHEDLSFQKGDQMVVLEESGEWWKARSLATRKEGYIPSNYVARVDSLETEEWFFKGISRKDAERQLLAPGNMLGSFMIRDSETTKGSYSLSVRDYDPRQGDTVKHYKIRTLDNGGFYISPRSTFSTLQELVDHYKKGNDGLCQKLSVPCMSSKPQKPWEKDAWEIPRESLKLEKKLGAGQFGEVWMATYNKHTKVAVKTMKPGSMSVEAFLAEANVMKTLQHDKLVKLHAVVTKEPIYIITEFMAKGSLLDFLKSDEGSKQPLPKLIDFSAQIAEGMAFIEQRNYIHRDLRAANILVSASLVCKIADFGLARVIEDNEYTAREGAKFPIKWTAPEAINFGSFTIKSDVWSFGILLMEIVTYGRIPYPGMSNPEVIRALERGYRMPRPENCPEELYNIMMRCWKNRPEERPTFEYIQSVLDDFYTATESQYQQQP

[8] = target: T8, 371 kinases (kinase named in each endpoint) (Homo sapiens, UniProt P09619); settings: PDGFRB
T8 construct: purchased Reaction Biology

[9] = target: T9, 371 kinases (kinase named in each endpoint) (Homo sapiens, UniProt P09769); settings: FGR
T9 construct: purchased Reaction Biology
T9 sequence (P09769 whole entry): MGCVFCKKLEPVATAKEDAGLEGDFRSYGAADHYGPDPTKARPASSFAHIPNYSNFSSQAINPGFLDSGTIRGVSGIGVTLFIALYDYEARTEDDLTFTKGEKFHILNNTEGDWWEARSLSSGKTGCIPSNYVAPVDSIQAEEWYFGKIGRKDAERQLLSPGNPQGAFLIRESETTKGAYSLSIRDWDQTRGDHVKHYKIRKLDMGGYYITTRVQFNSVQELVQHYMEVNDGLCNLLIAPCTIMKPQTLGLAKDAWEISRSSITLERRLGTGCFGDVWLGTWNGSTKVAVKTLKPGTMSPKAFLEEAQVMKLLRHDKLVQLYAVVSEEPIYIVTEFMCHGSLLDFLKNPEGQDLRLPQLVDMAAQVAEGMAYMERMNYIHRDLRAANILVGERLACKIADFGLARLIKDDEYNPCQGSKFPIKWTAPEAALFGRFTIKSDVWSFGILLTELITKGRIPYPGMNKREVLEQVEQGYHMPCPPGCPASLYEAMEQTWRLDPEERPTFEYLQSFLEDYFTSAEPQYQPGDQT

[10] = target: T10, 371 kinases (kinase named in each endpoint) (Homo sapiens, UniProt P16591); settings: FER
T10 construct: purchased Reaction Biology

[11] = target: T11, 371 kinases (kinase named in each endpoint) (Homo sapiens, UniProt P21709); settings: EPHA1
T11 construct: purchased Reaction Biology

[12] = target: T12, 371 kinases (kinase named in each endpoint) (Homo sapiens, UniProt P27361); settings: ERK1
T12 construct: purchased Reaction Biology
T12 sequence (P27361 whole entry): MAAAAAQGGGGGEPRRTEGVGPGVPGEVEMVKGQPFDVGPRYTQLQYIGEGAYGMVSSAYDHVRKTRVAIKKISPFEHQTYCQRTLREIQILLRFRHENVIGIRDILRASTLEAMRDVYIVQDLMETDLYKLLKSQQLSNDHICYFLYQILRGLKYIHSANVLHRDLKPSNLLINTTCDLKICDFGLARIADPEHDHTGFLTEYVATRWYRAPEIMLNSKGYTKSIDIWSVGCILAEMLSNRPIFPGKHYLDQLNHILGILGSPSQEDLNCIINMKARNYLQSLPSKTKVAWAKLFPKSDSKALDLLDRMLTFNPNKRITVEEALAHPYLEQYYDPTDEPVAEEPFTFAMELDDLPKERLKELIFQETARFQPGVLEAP

[13] = target: T13, 371 kinases (kinase named in each endpoint) (Homo sapiens, UniProt P29597); settings: TYK2
T13 construct: purchased Reaction Biology

[14] = target: T14, 371 kinases (kinase named in each endpoint) (Homo sapiens, UniProt P51956); settings: NEK3
T14 construct: purchased Reaction Biology

[15] = target: T15, 371 kinases (kinase named in each endpoint) (Homo sapiens, UniProt P52564); settings: MKK6
T15 construct: purchased Reaction Biology

[16] = target: T16, 371 kinases (kinase named in each endpoint) (Homo sapiens, UniProt Q00535)
T16 construct: purchased Reaction Biology
T16 sequence (Q00535 whole entry): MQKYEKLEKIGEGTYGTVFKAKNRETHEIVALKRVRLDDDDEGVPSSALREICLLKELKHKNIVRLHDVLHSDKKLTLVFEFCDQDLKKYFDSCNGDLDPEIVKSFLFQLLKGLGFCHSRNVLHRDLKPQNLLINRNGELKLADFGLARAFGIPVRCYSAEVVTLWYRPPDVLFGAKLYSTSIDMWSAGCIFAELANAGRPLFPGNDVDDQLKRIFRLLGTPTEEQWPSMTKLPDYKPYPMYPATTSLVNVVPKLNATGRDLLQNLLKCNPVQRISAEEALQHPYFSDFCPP

[17] = target: T17, 371 kinases (kinase named in each endpoint) (Homo sapiens, UniProt Q05655); settings: PKCD
T17 construct: purchased Reaction Biology
T17 sequence (Q05655 whole entry): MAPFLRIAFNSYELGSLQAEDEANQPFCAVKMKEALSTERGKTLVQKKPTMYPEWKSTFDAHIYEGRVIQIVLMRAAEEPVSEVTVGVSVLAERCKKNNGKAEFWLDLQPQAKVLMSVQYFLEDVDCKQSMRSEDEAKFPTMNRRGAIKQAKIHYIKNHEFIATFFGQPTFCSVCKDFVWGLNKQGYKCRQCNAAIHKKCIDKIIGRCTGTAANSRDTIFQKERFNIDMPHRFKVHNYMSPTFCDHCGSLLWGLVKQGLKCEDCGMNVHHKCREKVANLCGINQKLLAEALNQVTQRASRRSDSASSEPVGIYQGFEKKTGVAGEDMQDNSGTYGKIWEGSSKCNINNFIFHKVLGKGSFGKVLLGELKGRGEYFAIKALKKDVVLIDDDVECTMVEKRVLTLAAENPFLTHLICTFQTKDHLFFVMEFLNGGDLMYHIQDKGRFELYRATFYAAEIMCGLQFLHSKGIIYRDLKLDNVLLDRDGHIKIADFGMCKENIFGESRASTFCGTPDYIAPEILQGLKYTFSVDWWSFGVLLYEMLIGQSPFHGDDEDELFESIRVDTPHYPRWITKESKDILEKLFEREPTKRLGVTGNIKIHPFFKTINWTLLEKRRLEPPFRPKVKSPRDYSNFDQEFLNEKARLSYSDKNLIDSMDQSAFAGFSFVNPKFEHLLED

[18] = target: T18, 371 kinases (kinase named in each endpoint) (Homo sapiens, UniProt Q13043); settings: MST1/STK4
T18 construct: purchased Reaction Biology

[19] = target: T19, 371 kinases (kinase named in each endpoint) (Homo sapiens, UniProt Q13464); settings: ROCK1
T19 construct: purchased Reaction Biology

[20] = target: T20, 371 kinases (kinase named in each endpoint) (Homo sapiens, UniProt Q13470); settings: TNK1
T20 construct: purchased Reaction Biology

[21] = target: T21, 371 kinases (kinase named in each endpoint) (Homo sapiens, UniProt Q16816); settings: PHKG1
T21 construct: purchased Reaction Biology

[22] = target: T22, 371 kinases (kinase named in each endpoint) (Homo sapiens, UniProt Q32MK0); settings: MYLK3
T22 construct: purchased Reaction Biology

[23] = target: T23, 371 kinases (kinase named in each endpoint) (Homo sapiens, UniProt Q6DT37); settings: DMPK2
T23 construct: purchased Reaction Biology

[24] = target: T24, 371 kinases (kinase named in each endpoint) (Homo sapiens, UniProt Q6P2M8); settings: CAMK1B
T24 construct: purchased Reaction Biology

[25] = target: T25, 371 kinases (kinase named in each endpoint) (Homo sapiens, UniProt Q86Y07); settings: VRK2
T25 construct: purchased Reaction Biology

[26] = target: T26, 371 kinases (kinase named in each endpoint) (Homo sapiens, UniProt Q8IU85); settings: CAMK1D
T26 construct: purchased Reaction Biology

[27] = target: T27, 371 kinases (kinase named in each endpoint) (Homo sapiens, UniProt Q8IWQ3); settings: BRSK2
T27 construct: purchased Reaction Biology

[28] = target: T28, 371 kinases (kinase named in each endpoint) (Homo sapiens, UniProt Q8N5S9); settings: CAMKK1
T28 construct: purchased Reaction Biology

[29] = target: T29, 371 kinases (kinase named in each endpoint) (Homo sapiens, UniProt Q9BUB5); settings: MNK1
T29 construct: purchased Reaction Biology

[30] = target: T30, 371 kinases (kinase named in each endpoint) (Homo sapiens, UniProt Q9H0K1); settings: SIK2
T30 construct: purchased Reaction Biology

[31] = target: T31, 371 kinases (kinase named in each endpoint) (Homo sapiens, UniProt Q9NYL2); settings: ZAK/MLTK
T31 construct: purchased Reaction Biology

[32] = target: T32, 371 kinases (kinase named in each endpoint) (Homo sapiens, UniProt Q9UKE5); settings: TNIK
T32 construct: purchased Reaction Biology

[33] = target: T33, 371 kinases (kinase named in each endpoint) (Homo sapiens, UniProt Q9UM73); settings: ALK
T33 construct: purchased Reaction Biology

[34] = target: T34, 371 kinases (kinase named in each endpoint) (Homo sapiens, UniProt Q9UQB9); settings: AURORA C
T34 construct: purchased Reaction Biology

[35] = target: T35, 371 kinases (kinase named in each endpoint) (Homo sapiens, UniProt Q9Y2H1); settings: STK38L/NDR2
T35 construct: purchased Reaction Biology
T35 sequence (Q9Y2H1 whole entry): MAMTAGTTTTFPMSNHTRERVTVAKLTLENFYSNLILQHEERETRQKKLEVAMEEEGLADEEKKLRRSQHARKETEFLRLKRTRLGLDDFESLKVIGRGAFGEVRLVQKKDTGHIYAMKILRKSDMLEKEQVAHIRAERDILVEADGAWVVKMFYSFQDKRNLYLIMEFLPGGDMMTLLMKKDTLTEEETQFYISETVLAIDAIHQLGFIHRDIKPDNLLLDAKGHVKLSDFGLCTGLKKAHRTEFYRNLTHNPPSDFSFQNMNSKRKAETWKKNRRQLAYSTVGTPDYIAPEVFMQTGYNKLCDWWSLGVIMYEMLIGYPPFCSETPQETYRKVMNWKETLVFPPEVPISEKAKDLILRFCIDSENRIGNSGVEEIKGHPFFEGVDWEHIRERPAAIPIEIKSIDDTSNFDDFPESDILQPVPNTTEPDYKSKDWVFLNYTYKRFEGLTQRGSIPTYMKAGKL

[36] = target: T36, 371 kinases (kinase named in each endpoint) (Homo sapiens, UniProt Q9Y463); settings: DYRK1B
T36 construct: purchased Reaction Biology

[37] = target: T37, 371 kinases (kinase named in each endpoint) (Homo sapiens, UniProt Q9Y6M4); settings: CK1G3
T37 construct: purchased Reaction Biology

T1 sequence (O15530 whole entry): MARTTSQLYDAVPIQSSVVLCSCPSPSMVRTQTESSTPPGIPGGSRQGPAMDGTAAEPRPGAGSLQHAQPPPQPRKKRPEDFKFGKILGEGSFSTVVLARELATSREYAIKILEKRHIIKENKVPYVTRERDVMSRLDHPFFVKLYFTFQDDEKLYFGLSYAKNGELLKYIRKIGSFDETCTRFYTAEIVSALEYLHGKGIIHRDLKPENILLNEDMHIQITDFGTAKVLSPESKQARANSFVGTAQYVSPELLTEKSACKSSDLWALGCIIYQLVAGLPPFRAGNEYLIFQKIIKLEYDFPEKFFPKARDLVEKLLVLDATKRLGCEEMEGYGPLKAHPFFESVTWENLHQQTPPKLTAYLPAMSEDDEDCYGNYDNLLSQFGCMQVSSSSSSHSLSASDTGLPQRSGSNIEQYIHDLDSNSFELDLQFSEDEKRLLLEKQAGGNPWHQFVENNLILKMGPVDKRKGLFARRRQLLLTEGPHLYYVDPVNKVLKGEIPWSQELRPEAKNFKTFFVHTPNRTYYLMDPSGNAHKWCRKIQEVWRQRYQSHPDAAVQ

O=C(O)c1cc(C(F)(F)F)ccc1NCCc1c[nH]c2cc(Br)ccc12 [Compound 5, 2-((2-(6-Bromo-1H-indol-3-yl)ethyl)amino)−5-(trifluoromethyl)benzoic Acid]
activity at 10 µM [1]: 97 ± 1% | activity at 10 µM [2]: 57.3 ± 2.4% | activity at 10 µM [3]: 82.2 ± 0.5% | activity at 10 µM [4]: 59.4 ± 2.8% | activity at 10 µM [5]: 65.1 ± 1.6% | activity at 10 µM [6]: 92.7 ± 3.3% | activity at 10 µM [7]: 86.2 ± 0.4% | activity at 10 µM [8]: 92.5 ± 0.1% | activity at 10 µM [9]: 83.5 ± 1.1% | activity at 10 µM [10]: 89.6 ± 2% | activity at 10 µM [11]: 102.2 ± 0.1% | activity at 10 µM [12]: 99.7 ± 0.9% | activity at 10 µM [13]: 78.1 ± 0.7% | activity at 10 µM [14]: 93.3 ± 0.4% | activity at 10 µM [15]: 101 ± 0.2% | activity at 10 µM ([16]; CDK5/P25): 48.6 ± 1.3% | activity at 10 µM ([16]; CDK5/P35): 88.8 ± 0.3% | activity at 10 µM [17]: 54.7 ± 2.7% | activity at 10 µM [18]: 89.6 ± 2.7% | activity at 10 µM [19]: 93.3 ± 1.1% | activity at 10 µM [20]: 94.4 ± 0.5% | activity at 10 µM [21]: 87 ± 2.6% | activity at 10 µM [22]: 90.9 ± 3.2% | activity at 10 µM [23]: 96.2 ± 1.7% | activity at 10 µM [24]: 59.1 ± 0.7% | activity at 10 µM [25]: 94.6 ± 1% | activity at 10 µM [26]: 69.8 ± 1.7% | activity at 10 µM [27]: 79.5 ± 0.8% | activity at 10 µM [28]: 65.6 ± 1.3% | activity at 10 µM [29]: 79 ± 0.9% | activity at 10 µM [30]: 81 ± 0.3% | activity at 10 µM [31]: 96.9 ± 0.2% | activity at 10 µM [32]: 51.9 ± 1.4% | activity at 10 µM [33]: 93.8 ± 0.7% | activity at 10 µM [34]: 98 ± 0.2% | activity at 10 µM [35]: 94 ± 0.9% | activity at 10 µM [36]: 64.8 ± 1.1% | activity at 10 µM [37]: 96.3 ± 0.6%
